Results: patent publication US6132711A, “Enzymatic antioxidant of allene oxide for lipid peroxidation in biological systems” (Arizona Board of Regents, priority 1997, dated 2000)
Values joined by “and” are separate entries in the source; they are usually repeats but may differ in a detail not shown here. Equal entries are not always repeated.

Key:
[1] = target: T1, AOS (Parthenium argentatum, UniProt Q40778); experiment: Fluorescence spectroscopy of rubber particles incubated with AOS inhibitors; format: biochemical, guayule; set-up: from tissue; host or cells: washed rubber particles of guayule, carrying the endogenous AOS; conditions: native rubber particles incubated with 1 mM inhibitor
T1 sequence (Q40778 1-473): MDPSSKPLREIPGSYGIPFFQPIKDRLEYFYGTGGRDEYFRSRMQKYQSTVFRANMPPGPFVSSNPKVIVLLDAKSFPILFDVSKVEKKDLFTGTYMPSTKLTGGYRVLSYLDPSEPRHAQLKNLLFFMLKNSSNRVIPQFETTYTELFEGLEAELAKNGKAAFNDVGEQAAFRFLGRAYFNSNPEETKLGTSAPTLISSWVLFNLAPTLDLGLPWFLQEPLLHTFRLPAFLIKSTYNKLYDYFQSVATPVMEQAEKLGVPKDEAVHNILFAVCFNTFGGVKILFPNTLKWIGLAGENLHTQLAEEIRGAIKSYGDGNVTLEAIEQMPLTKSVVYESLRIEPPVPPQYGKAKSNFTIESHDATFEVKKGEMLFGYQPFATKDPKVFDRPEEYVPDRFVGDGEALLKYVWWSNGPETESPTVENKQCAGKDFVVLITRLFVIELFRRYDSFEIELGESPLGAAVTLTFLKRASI
Description: Rubber particle suspensions containing approximately 5×10^10 particles ml^-1 or 100 μg μl^-1 rubber were extracted for lipids and analyzed according to Yao et al., J Cell Biochem 51: 488-494 (1993); Eldred, Anal. Biochem. 64: 23-36 (1987), Malshet et al., Lipids 9: 328-332 (1974) and above (see sec. 8.1) using a FluoroMax spectrofluoromoeter (JY/SPEX Instruments SA, Inc.) with an excitation maxima of 300 nm and an emission maxima of 405 nm. Background fluorescence was automatically subtracted. […] The effect of pH on relative fluorescence spectroscopy was performed. The effect of pH on relative fluorescence intensities was also determined on lipids extracted from rubber particle lipids according to Malshet et al., Lipids 9: 328-332 (1974).

[2] = system: linoleic acid conjugated dienes; experiment: UV spectrophotometry of superoxide-induced linoleic acid conjugated dienes (A234); format: biochemical, guayule; conditions: AOS preincubated with 1 mM ASA, then linoleic acid + riboflavin/TEMED
Description: Likewise, the effect of superoxide, produced by the riboflavin/TEMED mixture and light, on lipid peroxidation was determined. […] The mixture was exposed to light and scanned in a UV spectrophotometer at 200 to 300 nm at 10 sec intervals for 2 minutes and again at 5 and 10 min. The effect of AOS on superoxide-inducedlinoleic hydroperoxides was determined using partially pure AOS solubilized from fresh rubber particles using the CHAPS extraction and filtration procedure (Pan et al., J Biol Chem 270: 8487-8494, 1995), which removed all remaining rubber. One μg partially pure AOS was added to oxidized linoleic acid and UV scanned at 2 minute intervals.
This mixture was scanned at A234 followed by addition of riboflavin/TEMED and exposure to 10 min. of light, to produce superoxide. The mixture was rescanned at 10 min intervals.

[3] = system: rubber transferase (RuT); experiment: Rubber transferase assay in washed rubber particles ([14C]-IPP incorporation); format: biochemical, guayule; set-up: inhibition of RuT activity / inhibition of rubber biosynthesis: concentration or dose not given beside the values
Description: RuT assays were performed according to Cornish and Backhaus, Phytochemistry 29: 3809-3813 (1990) using a final reaction volume of 500 μl containing, at final concentration, 3.5 mM MgCl2, 2.5 mM MnCl2 26.7 μM FPP, 85 μM IPP and 1.48 μCi[^14 C]-IPP (sp. act. 57 mCi mM^-1 NEN DuPont) in 50 mM potassium phosphate buffer, pH 8.0. The reaction was initiated by the addition of 200 μl of fresh, triple-washed rubber particle suspensions containing 10-20 mg rubber. Control reactions were made to test IPP incorporation into rubber by omitting FPP or adding 50 mM EDTA to the reaction (Cornish and Backhaus, Phytochem. 29: 3809-3813 (1990)). To control AOS activity, one or more of the following was added to the reaction mix (final concentration): 0.5 to 2 mM SA, 0.5 to 2 mM ASA, 11.2 μM riboflavin plus 11.2 mM TEMED, 0.003% H2 O2, 2.0 U type II porcine pancreatic lipase (Sigma #L-3126) or 9450 U type V soybean lipoxygenase (Sigma #L-6632). These additions were made directly to the washed rubber particles and incubated for 20 min before adding to them to the reaction mix. In reactions that required dark conditions (to prevent the formation of superoxide), assay tubes were foil wrapped. […] H2 O2 was added directly to the particles and incubated for at least 20 min before adding SA or ASA. All RuT assays were run at 15° C. for 16 hours and activity was determined according to Cornish and Backhaus, Phytochemistry 29: 3809-3813 (1990) using liquid scintillation spectroscopy with toluene-based scintillant.

[4] = target: T1, AOS; experiment: Superoxide/colorimetry (riboflavin/TEMED/NBT) assay; conditions: for NBT color after superoxide: rubber particles incubated with inhibitor
Description: A 1-5 μl suspension of fatty acids or rubber particles (at 100 μg μl^-1) was added directly to 200 μl 50 mM potassium phosphate buffer, pH 8.0 containing 2.8 μM riboflavin and 28 mM tetramethyllethylenediamine (TEMED). […] Superoxide was generated by exposing the combined particles and riboflavin/TEMED solution to light, provided by a 100 W bulb, spaced 30 cm from the suspension, for 10 minutes. The degree of reduction was then determined by adding 200 μl 50 mM potassium phosphate buffer, pH 8.0 containing 2.45 mM nitroblue tetrazolium (NBT) and monitoring for 10 min. Reduction of NBT caused a yellow to blue color change. The effect of CO on AOS inhibition and its reversal by exposure to high light was tested by placing the CO and O2 treated suspension directly in front of a water-cooled, slide projector lamp and exposing the mixture to bright light for 1, 5 or 10 min before performing the NBT assay.
If SOD is present, NBT remains yellow. […] If AOS were active, rubber particles would be protected from peroxidation and NBT would be reduced by superoxide resulting in a blue color. However, if AOS were inactivated, then rubber particles would act as a sink for superoxide and NBT would not be reduced to blue tetrasodium,or would be reduced at a slower rate. For this assay to work, endogenous SOD must not be present in rubber particles.

[5] = target: T1, AOS; conditions: for fluorescence over 24 hr, AOS inhibited and antioxidant present: rubber particles, 1 mM ASA plus 1% antioxidant
[6] = target: T1, AOS; experiment: Conjugated dienes in lipids extracted from rubber particles incubated with H2O2 (A234); format: biochemical, guayule; set-up: from tissue; host or cells: washed rubber particles of guayule, carrying the endogenous AOS; conditions: 1 mM inhibitor, 0.05% H2O2
Text: Lipids from these particles were extracted and analyzed spectrophotometrically at 234 nm according to Aust, Lipid peroxidation, In: Greenwald R (ed) CRC Handbook of Methods for Oxygen Radical Research, CRC Press, Boca Raton, pp. 203-207 (1985).

[7] = salicylate + H2O2 in place of superoxide
[8] = salicylate + non-photoreduced riboflavin/TEMED (no superoxide), compared to controls
[9] = salicylate + superoxide (riboflavin/TEMED plus light)

Which “fluorescence of rubber particles” value [1] does the source give for O=C(O)c1cc(S(=O)(=O)O)ccc1O [5SSA, 5-sulfosalicylic acid] here?
Its value is “did not fluoresce”.

Which “A234 on exposure to superoxide, AOS first incubated with inhibitor” value [2] does the source give for CC(=O)Oc1ccccc1C(=O)O [ASA, acetylsalicylic acid] here?
Its value is “notable increase in A234”.

And the RuT activity ([3]; 0.5 mM inhibitor, riboflavin/TEMED + dark (no superoxide))?
Its RuT activity is 599.3 ± 11.8 nmol IPP mg^-1 dry rubber 16 hr^-1.

And the RuT activity ([3]; 1 mM inhibitor, riboflavin/TEMED + dark (no superoxide))?
Its RuT activity is 421.6 ± 105.4 nmol IPP mg^-1 dry rubber 16 hr^-1.

And the “inhibition of RuT activity” value [3, 7]?
The value was 89%.

And the “inhibition of RuT activity” value [3, 8]?
The value was 20%.

What about the “inhibition of RuT activity” value [3, 9] of the same molecule?
The value was 88%.

What about the “NBT color after superoxide” value [4] of the same molecule?
The value was “yellow”.

What about the “fluorescence over 24 hr” value ([5]; rubber particles in presence of 1 mM ASA) of the same molecule?
Its value is “fluorescence increased up to 12 hours and then plateaued”.

What about the “fluorescence of rubber particles” value [1] of the same molecule?
Its value is “striking increase in fluorescence”.

What about the “conjugated diene formation in extracted lipids (A234)” value [6] of the same molecule?
Its value is “Conjugated dienes formed only when AOS was inhibited by ASA in the presence of H2 O2”.

For Cc1cc(C(C)(C)C)c(O)c(C(C)(C)C)c1 [BHT], which “fluorescence over 24 hr, AOS inhibited and antioxidant present” value [5] is on record?
Its value is “slight increase in fluorescence”.

How did the “restoration of AOS activity” value ([4]; CO-bound-AOS in rubber particles, high light 1 min) turn out when [C-]#[O+] [CO, carbon monoxide] was run?
Its value is “partial restoration of AOS”.

And the “restoration of AOS activity” value ([4]; CO-bound-AOS in rubber particles, high light 5 min)?
Its value is “maximum restoration of AOS activity”.

What about the AOS activity ([4]; CO-bound-AOS in rubber particles, more than 5 min high light) of the same molecule?
The AOS activity was “reduction in AOS activity”.

And the “NBT color when CO inhibition was reversed by strong light” value ([4]; CO-treated rubber particles, strong light)?
The value was “grayish yellow”.

What about the “NBT color after superoxide” value [4] of the same molecule?
The value was “yellow”.

Which “drop in RuT activity” value ([3]; 1 mM SA alone, 960 min) does the source give for O=C(O)c1ccccc1O [SA, salicylic acid] here?
The value was 10-30%.

What about the RuT activity ([3]; 1 mM SA alone, Experiment 1) of the same molecule?
The RuT activity was 402.5 ± 18.2 nmol IPP mg^-1 dry rubber 16 hr^-1.

What about the RuT activity ([3]; 1 mM SA alone, Experiment 2) of the same molecule?
Its RuT activity is 320.4 ± 4.5 nmol IPP mg^-1 dry rubber 16 hr^-1.

What about the RuT activity ([3]; 1 mM SA alone, Experiment 3) of the same molecule?
The RuT activity was 315.9 ± 10.6 nmol IPP mg^-1 dry rubber 16 hr^-1.

What about the RuT activity ([3]; 1 mM inhibitor, riboflavin/TEMED + light (superoxide)) of the same molecule?
Its RuT activity is 74.2 ± 1.29 nmol IPP mg^-1 dry rubber 16 hr^-1 and 98.3 ± 1.56 nmol IPP mg^-1 dry rubber 16 hr^-1 and 74.2 ± 1.3 nmol IPP mg^-1 dry rubber 16 hr^-1.

What about the RuT activity ([3]; 1.5 mM inhibitor, no superoxide (dark)) of the same molecule?
Its RuT activity is 236.7 ± 3.0 nmol IPP mg^-1 dry rubber 16 h.

And the RuT activity ([3]; 1.5 mM inhibitor, superoxide (light))?
Its RuT activity is 105.3 ± 3.2 nmol IPP mg^-1 dry rubber 16 h.

And the RuT activity ([3]; 2 mM SA, photo reduced and non-photo reduced riboflavin/TEMED)?
Its RuT activity is “severely inhibited”.

What about the RuT activity ([3]; 2 mM inhibitor, no superoxide (dark)) of the same molecule?
Its RuT activity is 25.1 ± 1.2 nmol IPP mg^-1 dry rubber 16 h.

And the RuT activity ([3]; 2 mM inhibitor, superoxide (light))?
Its RuT activity is 18.5 ± 9.24 nmol IPP mg^-1 dry rubber 16 hr^-1.

And the “inhibition of RuT activity” value [3, 7]?
Its value is 89%.

What about the “inhibition of RuT activity” value [3, 8] of the same molecule?
The value was 20%.

What about the “inhibition of RuT activity” value [3, 9] of the same molecule?
The value was 88%.

And the “NBT color after superoxide” value [4]?
The value was “yellow”.

And the “fluorescence of rubber particles” value [1]?
Its value is “Identical fluorescence patterns”.

How did the “fluorescence of rubber particles” value [1] turn out when OCc1ccccc1O[C@@H]1O[C@H](CO)[C@@H](O)[C@H](O)[C@H]1O [SAL, salicin] was run?
Its value is “did not fluoresce”.

With Cc1c(C)c2c(c(C)c1O)CCC(C)(CCCC(C)CCCC(C)CCCC(C)C)O2 (stereo not drawn) [α-tocopherol] as the molecule, how does the “fluorescence over 24 hr, AOS inhibited and antioxidant present” value [5] read?
Its value is “slight increase in fluorescence”.

B1: lipoxygenase: type V soybean lipoxygenase (Sigma #L-6632) (protein, UniProt P08170 1-839, looked up)
Seed linoleate …: MFSAGHKIKGTVVLMPKNELEVNPDGSAVDNLNAFLGRSVSLQLISATKADAHGKGKVGKDTFLEGINTSLPTLGAGESAFNIHFEWDGSMGIPGAFYIKNYMQVEFFLKSLTLEAISNQGTIRFVCNSWVYNTKLYKSVRIFFANHTYVPSETPAPLVSYREEELKSLRGNGTGERKEYDRIYDYDVYNDLGNPDKSEKLARPVLGGSSTFPYPRRGRTGRGPTVTDPNTEKQGEVFYVPRDENLGHLKSKDALEIGTKSLSQIVQPAFESAFDLKSTPIEFHSFQDVHDLYEGGIKLPRDVISTIIPLPVIKELYRTDGQHILKFPQPHVVQVSQSAWMTDEEFAREMIAGVNPCVIRGLEEFPPKSNLDPAIYGDQSSKITADSLDLDGYTMDEALGSRRLFMLDYHDIFMPYVRQINQLNSAKTYATRTILFLREDGTLKPVAIELSLPHSAGDLSAAVSQVVLPAKEGVESTIWLLAKAYVIVNDSCYHQLMSHWLNTHAAMEPFVIATHRHLSVLHPIYKLLTPHYRNNMNINALARQSLINANGIIETTFLPSKYSVEMSSAVYKNWVFTDQALPADLIKRGVAIKDPSTPHGVRLLIEDYPYAADGLEIWAAIKTWVQEYVPLYYARDDDVKNDSELQHWWKEAVEKGHGDLKDKPWWPKLQTLEDLVEVCLIIIWIASALHAAVNFGQYPYGGLIMNRPTASRRLLPEKGTPEYEEMINNHEKAYLRTITSKLPTLISLSVIEILSTHASDEVYLGQRDNPHWTSDSKALQAFQKFGNKLKEIEEKLVRRNNDPSLQGNRLGPVQLPYTLLYPSSEEGLTFRGIPNSISI
For B1, which RuT activity ([3]; lipoxygenase alone) is on record?
The RuT activity was “activity similar to positive controls”.

What about the RuT activity ([3]; lipoxygenase alone, listed as Lipoxygenase) of the same molecule?
Its RuT activity is “did not appear to affect RuT activity”.

And the “inhibition of rubber biosynthesis” value ([3]; lipoxygenase treatment and AOS inhibition)?
The value was 30%.
